According to patent US6967196B1, “Sulfonamide compounds and uses thereof” (Bristol-Myers Squibb Company, priority 1999, dated 2005):
Counter-ions that a name gives are not always drawn. Like-named read-outs stand apart in the source and are kept apart here.

Test system: amyloid β production in transfected H4 (human neuroglioma) cells stably expressing APP constructs
Assay: In vitro cell-based assay of inhibitors of amyloid β production (ELISA)
Conditions: transfected H4 cells stably expressing APP, amyloid β in medium by ELISA, read-out: ACTIVITY (IC50, inhibition of amyloid β production)
How it was run: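 Transfected H4 cells stably expressing wild-type or variant APP were exposed to compounds (initial screen 10-100 μM) for about 16 h. Secreted Aβ in the medium was quantified by sandwich ELISA (C-terminal-specific monoclonal capture, N-terminal-specific polyclonal detection) against an Aβ standard curve; dose-response runs followed for actives.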

[1] = approximately 16 hours incubation, Table B
[2] = Homo sapiens, 16 h, approx. 16 h incubation

| SMILES | IC50 [1] | IC50 (approx. 16 h incubation) | also measured |
| --- | --- | --- | --- |
| COC(=O)[C@H](CSCCCc1cc(F)ccc1[C@@H](C)N(c1cc(F)ccc1F)S(=O)(=O)c1ccc(Cl)cc1)NC(=O)OC(C)(C)C [Example 485] | 100 to 500 nM | – | – |
| COC(=O)[C@H](CS(=O)(=O)CCCc1cc(F)ccc1[C@@H](C)N(c1cc(F)ccc1F)S(=O)(=O)c1ccc(Cl)cc1)NC(=O)OC(C)(C)C [Example 486] | 100 to 500 nM | – | – |
| COC(=O)[C@@H](N)CS(=O)(=O)CCCc1cc(F)ccc1[C@@H](C)N(c1cc(F)ccc1F)S(=O)(=O)c1ccc(Cl)cc1 [Example 487, Methyl (2R)-2-amino-3-({3-[2-((1R)-1-{[(4-chlorophenyl)sulfonyl]-2,5-difluoroanilino}ethyl)-5-fluorophenyl]propyl}sulfonyl)propanoate Hydrochloride] | 100 to 500 nM | – | – |
| O=S1(=O)CCN(CCCOc2ccccc2CN(c2ccccc2)S(=O)(=O)c2ccc(Cl)cc2)CC1 [Example 492, 4-chloro-N-{2-[3-(1,1-dioxido-4-thiomorpholinyl)propoxy]benzyl}-N-phenylbenzenesulfonamide hydrochloride] | – | – | IC50 (Homo sapiens, 16 h, approximately 16 hours incubation, Table B): 100 to 500 nM |
| C[C@H](c1ccc(F)cc1CCCC(=O)O)N(c1cc(F)ccc1F)S(=O)(=O)c1ccc(Cl)cc1 [Example 494, 4-[2-((1R)-1-{[(4-chlorophenyl)sulfonyl]-2,5-difluoroanilino}ethyl) 5-fluorophenyl]butanoic Acid] | 100 to 500 nM | – | – |
| C[C@H](c1ccc(F)cc1CCCC(=O)NC1CCCCC1)N(c1cc(F)ccc1F)S(=O)(=O)c1ccc(Cl)cc1 [Example 496, 4-[2-((1R)-1-{[(4-chlorophenyl)sulfonyl]-2,5-difluoroanilino}ethyl)-5-fluorophenyl]-N-cyclohexylbutanamide] | 100 to 500 nM | – | – |
| CNC(=O)CCCc1cc(F)ccc1[C@@H](C)N(c1cc(F)ccc1F)S(=O)(=O)c1ccc(Cl)cc1 [Example 498, 4-[2-((1R)-1-{[(4-chlorophenyl)sulfonyl]-2,5-difluoroanilino}ethyl)-5-fluorophenyl]-N-methylbutanamide] | 100 to 500 nM | – | – |
| CCCN(CCC)C(=O)CCCc1cc(F)ccc1[C@@H](C)N(c1cc(F)ccc1F)S(=O)(=O)c1ccc(Cl)cc1 [Example 500, 4-[2-((1R)-1-{[(4-chlorophenyl)sulfonyl]-2,5-difluoroanilino}ethyl)-5-fluorophenyl]-N,N-dipropylbutanamide] | 100 to 500 nM | – | – |
| O=S(=O)(c1ccc(Cl)cc1)N(Cc1ccccc1OCCC[N+]1([O-])CCCCC1)c1ccccc1 [Example 505, 4-Chloro-N-{2-[3-(1-hydroxy-1˜lambda˜5˜piperidin-1-yl)propoxy]benzyl}-N-phenylbenzenesulfonamide] | 100 to 500 nM | – | – |
| O=S(=O)(c1ccc(Cl)cc1)N(Cc1ccccc1OCCC[N+]1([O-])CCCCC1)c1cc(Cl)ccc1Cl [Example 506] | 100 to 500 nM | – | – |
| O=S(=O)(c1ccc(Cl)cc1)N(Cc1ccccc1OCCC[N+]1([O-])CCCC1)c1cc(F)ccc1F [Example 507] | 100 to 500 nM | – | – |
| C[N+]1(CCCOc2ccccc2CN(c2cc(Cl)ccc2Cl)S(=O)(=O)c2ccc(Cl)cc2)CCCCC1 [Example 513, 1-{3-[2-({2,5-dichloro[(4-chlorophenyl)sulfonyl]anilino}methyl)phenoxy]propyl}-1-methylpiperidinium Iodide] | 100 to 500 nM | – | – |
| C[C@H](COC(=O)NCCCn1ccnc1)N(c1cc(F)ccc1F)S(=O)(=O)c1ccc(Cl)cc1 [Example 517, 4-Chloro-N-(2,5-difluorophenyl)-N-[2-[[N′-[3-(1 h-imidazol-1-yl)propylamino]carbonyl]oxy]-(r)-1-methylethyl]benzenesulfonamide] | 100 to 500 nM | – | – |
| CC(C)[C@H](NC(=O)CCC[C@@H](C)N(c1cc(Cl)ccc1F)S(=O)(=O)c1ccc(Cl)cc1)C(=O)O [Example 536, (R)-4-Chloro-N-(5-chloro-2-fluorophenyl)-N-[5-[N-(S)-[1-(carboxy)-2-methylpropyl]amino]-1-methyl-5-oxopentyl]benzenesulfonamide] | 100 to 500 nM | – | – |
| COC(=O)[C@@H](NC(=O)CC[C@@H](C)N(c1cc(Cl)ccc1F)S(=O)(=O)c1ccc(Cl)cc1)C(C)C [Example 537, (R)-4-Chloro-N-(5-chloro-2-fluorophenyl)-N-[4-[N-(S)-[1-(methoxycarbonyl)-2-methylpropyl]amino]1-methyl-4-oxobutyl]benzenesulfonamide] | 100 to 500 nM | – | – |
| COC(=O)[C@H](CC(C)C)NC(=O)CC[C@@H](C)N(c1cc(Cl)ccc1F)S(=O)(=O)c1ccc(Cl)cc1 [Example 538] | 100 to 500 nM | – | – |
| COC(=O)[C@H](CC(C)C)NC(=O)CCC[C@@H](C)N(c1cc(Cl)ccc1F)S(=O)(=O)c1ccc(Cl)cc1 [Example 541] | – | 100 to 500 nM | – |

| SMILES | IC50 [1] | IC50 (approx. 16 h incubation) | also measured |
| --- | --- | --- | --- |
| COC(=O)[C@@H](NC(=O)CCCC[C@@H](C)N(c1cc(Cl)ccc1F)S(=O)(=O)c1ccc(Cl)cc1)C(C)C [Example 542, (R)-4-Chloro-N-(5-chloro-2-fluorophenyl)-N-[6-[N-(S)-[1-(methoxycarbonyl)-2-methylpropyl]amino]-1-methyl-6-oxohexyl]benzenesulfonamide] | – | 100 to 500 nM | – |
| COC(=O)[C@H](CC(C)C)NC(=O)CCCC[C@@H](C)N(c1cc(Cl)ccc1F)S(=O)(=O)c1ccc(Cl)cc1 [Example 543, (R)-4-Chloro-N-(5-chloro-2-fluorophenyl)-N-[6-[N-(S)-[1-(methoxycarbonyl)-3-methylbutyl]amino]-1-methyl-6-oxohexyl]benzenesulfonamide] | – | 100 to 500 nM | – |
| CC(C)[C@@H](NC(=O)CCC[C@@H](C)N(c1cc(Cl)ccc1F)S(=O)(=O)c1ccc(Cl)cc1)C(=O)O [Example 544, (R)-4-Chloro-N-(5-chloro-2-fluorophenyl)-N-[5-[N-(R)-[1-(carboxy)-2-methylpropyl]amino]-1-methyl-5-oxopentyl]benzenesulfonamide] | – | 100 to 500 nM | – |
| CC(C)C[C@H](NC(=O)CCC[C@@H](C)N(c1cc(Cl)ccc1F)S(=O)(=O)c1ccc(Cl)cc1)C(=O)O [Example 546, (R)-4-Chloro-N-(5-chloro-2-fluorophenyl)-N-[5-[N-(S)-[1-(carboxy)-3-methylbutyl]amino]-1-methyl-5-oxopentyl]benzenesulfonamide] | – | 100 to 500 nM | – |
| CC(C)[C@H](NC(=O)CCCC[C@@H](C)N(c1cc(Cl)ccc1F)S(=O)(=O)c1ccc(Cl)cc1)C(=O)O [Example 547, (R)-4-Chloro-N-(5-chloro-2-fluorophenyl)-N-[6-[N-(S)-[1-(carboxy)-2-methylpropyl]amino]-1-methyl-6-oxohexyl]benzenesulfonamide] | – | 100 to 500 nM | – |
| CC(C)C[C@H](NC(=O)CCCC[C@@H](C)N(c1cc(Cl)ccc1F)S(=O)(=O)c1ccc(Cl)cc1)C(=O)O [Example 548, (R)-4-Chloro-N-(5-chloro-2-fluorophenyl)-N-[6-[N-(S)-[1-(carboxy)-3-methylbutyl]amino]-1-methyl-6-oxohexyl]benzenesulfonamide] | – | 100 to 500 nM | – |
| C[C@H](C(=O)NCc1ccccn1)N(c1cc(Cl)ccc1F)S(=O)(=O)c1ccc(Cl)cc1 [Example 610] | – | 100 to 500 nM | – |
| C[C@H](C(=O)N[C@@H]1CC2CCC1C2)N(c1cc(Cl)ccc1F)S(=O)(=O)c1ccc(Cl)cc1 (stereo partly drawn) [Example 627] | – | 100 to 500 nM | – |
| CC(c1ccccc1OCCCN(C)C(=O)c1ccccc1I)N(c1cc(F)ccc1F)S(=O)(=O)c1ccc(Cl)cc1 (stereo not drawn) [Example 637] | – | 100 to 500 nM | – |
| O=S(=O)(c1ccc(Cl)cc1)N(Cc1ccccc1OCCCN1CCC(O)CC1)c1ccccc1 [Example 645, 4-chloro-N-{2-[3-(4-hydroxy-1-piperidinyl)propoxy]benzyl}-N-phenylbenzenesulfonamide hydrochloride] | – | – | IC50 [2]: 100 to 500 nM |
| CCOc1ccc(C(=O)N2CCCCC2CCOc2ccccc2CN(c2cc(F)ccc2F)S(=O)(=O)c2ccc(Cl)cc2)cc1 (stereo not drawn) [Example 648, 4-chloro-N-(2,5-difluorophenyl)-N-{2-[2-[1-(4-ethoxybenzoyl)-2-piperidinyl]ethoxy}benzyl)benzenesulfonamide] | – | – | IC50 [2]: 100 to 500 nM |
| O=C(c1cccc(F)c1)N1CCCCC1CCOc1ccccc1CN(c1cc(F)ccc1F)S(=O)(=O)c1ccc(Cl)cc1 (stereo not drawn) [Example 661, 4-chloro-N-(2,5-difluorophenyl)-N-(2-{2-[1-(3-fluorobenzoyl)-2-piperidinyl]ethoxy}benzyl)benzenesulfonamide] | – | – | IC50 [2]: 100 to 500 nM |
| O=S(=O)(c1ccc(Cl)cc1)N(Cc1ccccc1OCCCN1CCCCC1)c1cccc(Cl)c1 [Example 663, 4-chloro-N-(3-chlorophenyl)-N-{2-[3-(1-piperidinyl)propoxy]benzyl}benzenesulfonamide hydrochloride] | – | – | IC50 [2]: 100 to 500 nM |
| CN(CCCOc1ccccc1CN(c1cc(F)ccc1F)S(=O)(=O)c1ccc(Cl)cc1)C(=O)CCCCC1SCC2NC(=O)NC21 (stereo not drawn) [Example 666, N-{3-[2-({[(4-chlorophenyl)sulfonyl]-2,5-difluoroanilino}methyl)phenoxy]propyl}-N-methyl-5-(2-oxohexahydro-1H-thieno[3,4-d]imidazol-4-yl)pentamide] | – | 100 to 500 nM | – |
| C[C@H](c1ccccc1COC(=O)NCc1ccco1)N(c1cc(F)ccc1F)S(=O)(=O)c1ccc(Cl)cc1 [Example 667, 2-((1R)-1-{[(4-chlorophenyl)sulfonyl]-2,5-difluoroanilino}ethyl)benzyl 2-furylmethylcarbamate] | – | 100 to 500 nM | – |
| CC(c1ccccc1OCCCN(C)C(=O)c1cc([N+](=O)[O-])cc([N+](=O)[O-])c1)N(c1cc(F)ccc1F)S(=O)(=O)c1ccc(Cl)cc1 (stereo not drawn) [Example 668, N-{3-[2-(1-{[(4-chlorophenyl)sulfonyl]-2,5-difluoroanilino}ethyl)phenoxy]propyl}-N-methyl-3,5-dinitrobenzamide] | – | 100 to 500 nM | – |
